“And” between values parts separate entries of the source, which are not always exact repeats. Equal entries are not always repeated.
What was measured:
[1] = Real time stability of NAT in drug product formulations; type: physicochemical
Description: NAT and NAT degradants were separated on an Agilent 1200 series HPLC or Waters H Class UPLC using an Agilent ZORBAX SB-C18 3.5 μm, 4.6×75 mm reverse phase column. Column temperature was held at 30±0.8° C. by a thermostat controller. The gradients used for HPLC and UPLC are listed in Tables 5 and 6, respectively (note: the shorter gradient on the UPLC was designed to accommodate earlier retention times and the column re-equilibration period was elongated due to the larger range of system pressure at a flow rate of 1.0 ml/min). NAT degradation products were detected at 240 nm. The standard bandwidth setting (8 nm for Agilent 1200 HPLC, 4.8 nm for Waters H-Class) was used for analysis on each instrument. The autosampler was maintained at 5±3° C. 10 nmol of NAT and/or NAT degradants (50 μl for most samples) was injected on to the column for analysis. The chromatograms were processed using Dionex Chromeleon software. Protein-containing samples were diluted in guanidine and the proteins removed via ultra-filtration (Amicon spin filters with a 30 kDa molecular weight cut-off). […] Using the final sample preparation conditions, recovery of NAT was 94-99% for three tested antibody/antibody derivatives and recovery of NAT degradants was 98-100% (data not shown). With this model experience in hand, the amount of NAT oxidation expected to occur in the manufacturing and storage of mAbs was explored next. FIG. 12 illustrates the comparison of the AAPH model stress system with an antibody at 150 mg/ml (1.0 mM) co-formulated with NAT, Met, and other excipients typical of mAb formulations. Results are shown for the initial time point, at −20° C. and 5° C. for six months (representative of typical storage conditions), and 25° C. for 6 months (representative of accelerated stability conditions). Oxidation levels were negligible directly after manufacturing and under the typical storage conditions tested.

[2] = ICH light stress of NAT in formulation buffer, RP-HPLC at 240 nm; type: physicochemical; conditions: for % NAT degradation ± 1SD: ICH light stress (1.2 million lux-hours, 200 W-hours/m^2 UV, 24 hours), 0.3 mM NAT
Description: A light box [Atlas SunTEST CPS+ Xenon Light Box (Chicago, Ill.)] designed to conduct the drug substance/product photostability test recommended by the International Conference on Harmonization (ICH) Expert Working Group was utilized to provide light stress to NAT-containing samples. The ICH photostability test is defined as 1.2 million lux-hours of white light and 200 W-hours/m^2 of UV light; the light box was programmed to provide the stress over a period of 24 hours. Histidine and non-histidine buffers containing 0.3 mM NAT ±5 mM L-Met were aliquoted into sterile glass vials (1 ml/vial). The vials were capped and placed on their side in the light box to maximize exposure to the light source. A control sample for each buffer condition was covered in foil and placed in the light box for the duration of exposure. For consistency with the other stress models, prior to HPLC analysis, the buffer solutions were diluted with Milli-Q H2O to a final NAT concentration of 0.2 mM.
NAT and NAT degradants were separated on an Agilent 1200 series HPLC or Waters H Class UPLC using an Agilent ZORBAX SB-C18 3.5 μm, 4.6×75 mm reverse phase column. Column temperature was held at 30±0.8° C. by a thermostat controller. The gradients used for HPLC and UPLC are listed in Tables 5 and 6, respectively (note: the shorter gradient on the UPLC was designed to accommodate earlier retention times and the column re-equilibration period was elongated due to the larger range of system pressure at a flow rate of 1.0 ml/min). NAT degradation products were detected at 240 nm. The standard bandwidth setting (8 nm for Agilent 1200 HPLC, 4.8 nm for Waters H-Class) was used for analysis on each instrument. The autosampler was maintained at 5±3° C. 10 nmol of NAT and/or NAT degradants (50 μl for most samples) was injected on to the column for analysis. The chromatograms were processed using Dionex Chromeleon software.
Total NAT degradation for each sample was calculated by comparing NAT peak area to the control sample for each stress model (Table 7). NAT degradation ranged from 3% (thermal stress, non-His buffer) to 83% (ICH light stress, His buffer).

loss of NAT ([1]; 3 months at 25° C., corresponding vehicle (formulation without protein)): 1%
NAT loss ([1]; 3 months at 25° C., protein containing sample (antibody 150 mg/ml, NAT, Met, excipients)): 7.5%
NAT oxidation levels ([1]; directly after manufacturing and at −20° C. and 5° C. for six months, antibody 150 mg/ml co-formulated with NAT, Met): negligible
total NAT loss ([1]; six months at 25° C., antibody at 150 mg/ml (1.0 mM) co-formulated with NAT, Met and other excipients): 16.8%
NAT degradation ([1]; vehicle (formulation without protein) at higher temperatures): minimal NAT degradation
% NAT degradation ± 1SD ([2]; His + 5 mM Met buffer): 17.6 ± 0.7 (n = 2) %
% NAT degradation ± 1SD ([2]; His buffer): 83.4 ± 0.2 (n = 2) %
% NAT degradation ± 1SD ([2]; Non-His + 5 mM Met buffer): 18 ± 2 (n = 2) %
% NAT degradation ± 1SD ([2]; Non-His buffer): 28% and 28.0 ± 0.1 (n = 2) %
improvement to NAT stability by 5 mM Met (total NAT loss) ([2]; ICH light stress conditions): 10-16%
Compound: CC(=O)N[C@@H](Cc1c[nH]c2ccccc12)C(=O)O [NAT, N-acetyl-tryptophan]
